Starred links: 1 amine or outer side, 2 acyl side, 3 side chain; linkers in the order of their positions; H or OH if unused. Non-standard residues stand in square brackets, D forms with d. Residues, ends and D or L forms follow the SMILES beside them. *: point of attachment. Dolaproine = CO[C@@H]([C@@H]1CCCN1)[C@@H](C)C(=O)O; Dil = CC[C@H](C)[C@H](NC)[C@@H](CC(=O)O)OC; PABC = O=C(OCc1ccc(N[*:1])cc1)[*:2]; X1 = O=C(CCCC(=O)*)ON1C(=O)CCC1=O; X2 = C[C@@H](N*)[C@@H](O)c1ccccc1; Cit = NC(=O)NCCC[C@H](N)C(=O)O; NMeV = CN[C@H](C(=O)O)C(C)C
Tested on: CTG-0178
Assay: Champions TumorGraft NSCLC PDX efficacy, model CTG-0178
Format: in vivo, Mus musculus
Procedure: Mice were implanted subcutaneously into the left flank with tumor fragments from one of the various models. After tumors grew to an average of 150-300 mm^3, mice were treated by IV administration Q7Dx4 (n=2) with vehicle or 3 mg/kg of BT5528. Effects on tumor growth were evaluated by measuring percent tumor growth inhibition (% TGI), and the number of complete responders (CR), partial responders (PR), and tumor-free survivors (TFS). Tolerability was assessed by body weight loss, lethality, and clinical signs of adverse treatment-related side effects. Tumor volumes and body weights were measured twice a week.
Dosing solutions of BT5528 […] were pre-formulated. These dosing solutions were stored at −80° C. in the dark. On each day of dosing, a frozen aliquot of each test agent was thawed, stored at 2-8° C. and used for dosing.
The animals used in this study are described below: • Species: Mus musculus • Strain: Athymic Nude-Foxn1^nu (immune-compromised) • Source: Envigo (Indianapolis, Ind., USA) • Number of animals per group: 2 • Age and sex: At least 6-8 weeks of age at start of dosing, female • Weight: At least 18 grams at start of dosing • Acclimation period: 3 days
Stock mice were implanted with tumor cells from Champions TumorGraft® models CTG-0160, CTG-0170, CTG-0178, CTG-0192, CTG-0363, CTG-0808, CTG-0838, CTG-0848, CTG-1212, CTG-1502, CTG-1535, CTG-2011, CTG-2393, CTG-2539 or CTG-2540. After the tumors reached 1000-1500 mm^3, they were harvested and the tumor fragments (approximately 5×5×5 mm^3) were implanted SC in the left flank of the female study mice. Each animal was implanted with a specific passage lot and documented. Tumor growth was monitored twice a week using digital calipers and the tumor volume (TV) was calculated using the formula (0.52×[length×width^2]). When the TV reached an average volume of 150-300 mm^3, animals were matched by tumor size and assigned into Vehicle Control and treatment groups (n=2/group) and dosing was initiated on Day 0. After the initiation of dosing on Day 0, animals were weighed twice per week using a digital scale and TV was measured twice per week and also on the final day of study. The study was completed when the mean tumor volume of Vehicle Control reached 1500 mm^3 or up to Day 60, whichever occurred first.
Beginning on Day 0, animals were observed daily and weighed twice weekly using a digital scale; data including individual and mean gram weights, mean percent weight change versus Day 0 (% vD0) were recorded for each group and % vD0 plotted at study completion. […] Treatment resulting in a mean % vD0>20% and/or >10% mortality was considered above the maximum tolerated dose. Maximum mean % vD0 (weight nadir) for each treatment group was reported at study completion.
Inhibition of tumor growth was determined by calculating the percent TGI (100%×[1−(final MTV−initial MTV of a treated group)/(final MTV−initial MTV of the control group)]). Treatment started on Day 0.
Additional endpoints used to evaluate efficacy were: the number of complete responders (CR), partial responders (PR), and tumor-free survivors (TFS). PRs were considered exclusive of CRs, as were TFS.
Statistical analyses of anti-tumor efficacy were performed using one-way ANOVA followed by Dunnett's multiple comparisons test (GraphPad Prism version 8.2.0). Significant p-values=<0.05.
Animals were dosed according to the schedule on Table 7-1. The study was terminated on Day 28.

[1] = CTG-0178, 3 mg/kg IV Q7Dx4, Day 0-28

With `CC[C@H](C)[C@@H]([C@@H](CC(=O)N1CCC[C@H]1[C@H](OC)[C@@H](C)C(=O)N[C@H](C)[C@@H](O)c1ccccc1)OC)N(C)C(=O)[C@@H](NC(=O)[C@H](C(C)C)N(C)C(=O)OCc1ccc(NC(=O)[C@H](CCCNC(N)=O)NC(=O)[C@@H](NC(=O)CCCC(=O)ON2C(=O)CCC2=O)C(C)C)cc1)C(C)C` [BT5528] (X1-V[Cit][PABC][NMeV]V[Dil][Dolaproine]-X2) the “mean body weight loss” value (3 mg/kg IV Q7Dx4) was “minor mean body weight losses on Day 18”, the “MTV (mean tumor volume)” value (3 mg/kg IV Q7Dx4, Day 28) was 1145±271 mm^3 and the TGI (3 mg/kg IV Q7Dx4, Day 28) was 16%. For the same molecule, the “# CR (complete responders)” value [1] was 0/0/0, the “# PR (partial responders)” value [1] was 0/0/0 and the “# TFS (tumor-free survivors)” value [1] was 0/0/0. The “% TGI” value (CTG-0178, 3 mg/kg IV Q7Dx4, Day 28) was 16% and the “Day 28 Tumor Volume Mean TV ± SEM” value (CTG-0178, BT5528 3 mg/kg IV Q7Dx4, Day 28, n=2) was 1145 ± 271 mm^3.

Source: patent publication US20220184222A1, “BICYCLE TOXIN CONJUGATES AND USES THEREOF” (BicycleTx Limited, priority 2019, published 2022)
